Assay [1] deals with Akt phosphorylation. Briefly: Immunoblotting of Akt phosphorylation in C2 myoblast whole cell lysates. Type of assay: cell-based, mouse. The following applies: different concentrations of IGF-I, C2 myoblasts. The method, then: (§1) Whole cell protein lysates were prepared as described (Mukherjee A and Rotwein P, Mol Endorcrinol 22, 1238-1250 (2008); incorporated by reference herein). Protein aliquots (15 μg/lane) were resolved by SDS-PAGE (12% separating gel), followed by transfer to Immobilon-FL membranes, and blocking with 50% AquaBlock solution. Membranes were incubated sequentially with primary and secondary antibodies, as described (Mukherjee and Rotwein, 2008 supra). Primary antibodies were incubated for 12-16 hr at a 1:1000 dilution, except for α-tubulin (1:10,000), and secondary antibodies for 90 min at 1:5000. Images were captured using the LiCoR Odyssey and version 3.0 analysis software (Lincoln, Nebr.).

Assay [2] deals with Akt phosphorylation. Briefly: Immunoblotting of Akt and PRAS40 phosphorylation in 10T1/2 whole cell lysates. Type of assay: cell-based, mouse. On the procedure: (§2) Cells were imaged every 2-min for 60 min. At the end of the incubation period whole cell lysates were collected.
as §1
C3H10T1/2 cells stably expressing FoxO1-clover were incubated in SFM with Fluorobrite imaging media for 90 min followed by addition of insulin [1400 pM], EGF [4.2 nM], PDGF-AA [1400 pM], or PDGF BB [104 pM]. Whole protein lysates were collected after 0, 5, 15, 30, 60, and 90 min of growth factor exposure by washing cells twice with cold PBS and addition of RIPA buffer containing protease and phosphatase inhibitors (Mukherjee A and Rotwein P, Mol Endocrinol 22, 1238-1250 (2008); incorporated by reference herein). Protein aliquots (12.5 μg/lane) were resolved by SDS PAGE (10% separating gels), and transferred onto Immobilon-FL membranes. Membranes were incubated in 50% AquaBlock for 60 min, followed by addition of primary antibodies at 1:1000 dilution for 16 hr, and secondary antibodies for 90 min at 1:5000. Images were collected using the LiCoR Odyssey and analysis software version 3.0 (Lincoln, Nebr.).

Assay [3] deals with Akt. The assay is described as follows: FOXO1-clover reporter live-cell imaging (relative nuclear intensity) in C3H10T1/2 fibroblasts. The following applies: for change of nuclear levels of the reporter on growth factor addition (result in words): different concentrations; for change of nuclear levels of the reporter on growth factor addition (result in words) / time to half-maximal translocation/accumulation of reporter in the cytoplasm after onset of incubation / time to maximal translocation values: cells pre-incubated in SFM, population level; for time to half-maximal translocation/accumulation of reporter in the cytoplasm after onset of incubation / time to maximal translocation values: different growth factor concentrations. Type of assay: cell-based, mouse. On the procedure: as §2
10T1/2 cells and C2 myoblasts were incubated in serum-free medium for 90 min. R3-IGF-I was added in supplemented FluoroBrite [0 to 500 pM], and cells were imaged every 2-min for 60 min. […]
(§3) Live cell imaging was performed using an EVOS FL Auto microscope with a stage top incubator that was maintained at 37° C. and 95% humidified air with 5% CO2. Images were collected at 100× magnification at different intervals, using a 10× Fluorite objective (numerical aperture: 0.3), and a GFP light cube (excitation peak, 472/22 nm; emission peak, 510/42 nm). Images were analyzed with the NIH ImageJ plug-in Fiji (NIH, Bethesda, Md.), after using the Polynomial Fit plug-in to subtract background fluorescence, the Stack Reg (rigid registration) plug-in to register images, and the Gaussian Blur plug-in (at 2-pixels) to average fluorescence across pixels. Individual cells were manually tracked using the mTrackJ plug-in (Meijering E et al, Methods Enzymol 504, 183-200 (2012); incorporated by reference herein) by selecting a single point in the nucleus. Cells that died, divided, or migrated out of frame were excluded from analysis. In experiments performed in 6-well dishes, two locations on opposite sides of the well were imaged, while for studies using 24-well plates, one central location was imaged. In each location, at least 25 cells were tracked.

Assay [4] concerns Akt. The assay is described as follows: FoxO1-clover reporter live-cell imaging in HeLa cells. The following applies: IGF-I 500 pM, insulin 1400 pM, EGF 4.2 nM, PDGF-BB 4.1 nM, PDGF-AA 3.5 nM; 90 min. Type of assay: cell-based. The method, then: HeLa cells (ATCC #CCL2) were incubated in DMEM supplemented with 10% FBS. Cells were transduced at 50% of confluent density with concentrated FoxO1-clover virus in the presence of polybrene (6 μg/ml), as described (Gross S M and Rotwein P, Skelet Muscle 3, doi10.1186/2044-5040-3-10 (2013); incorporated by reference herein), and sorted by fluorescence intensity with a Becton-Dickinson Influx cell sorter. Reporter expression was stable for at least 10 passages in each sorted cell population. C3H10T1/2 mouse embryonic fibroblasts (ATC #CCL226) stably expressing FoxO1-clover (Gross and Rotwein, 2015), were maintained under selection with puromycin (2 μg/ml).
as §3, with “tracked. The relative nuclear intensity of the FoxO1-clover reporter protein was calculated in each cell by normalizing the values measured at time 0 to 100%. This corresponded to incubation in serum-free medium (SFM). In graphs in which single cell responses were plotted with C3H10T1/2 cells, we applied a time-weighted smoothing filter to each data point. This consisted of averaging contributions from the two prior and two succeeding times (adding 50% of the prior or succeeding time point, and 25% of the next succeeding or earlier time point to 100% of the value of the time point in question, and then dividing by 2.5).” for “tracked.”
Short-term responses to individual growth factors: C3H10T1/2 cells were incubated in serum-free Fluorobrite medium plus 2 mM L-glutamine and 0.1% bovine serum albumin for 90 min. Different concentrations of growth factors were added and images were collected every 2 min for 90 min. Growth factors included insulin [0 to 1400 pM], EGF [0 to 4.2 nM], PDGF-AA [0 to 1400 pM], or PDGF-BB [0 to 104 pM]. HeLa cells were incubated in serum-free Fluorobrite medium for 120 min and then incubated with insulin [1400 pM], EGF [4.2 nM], PDGF-AA [3.5 nM], PDGF-BB [4.1 nM], or R3-486 IGF-I [500 pM], with images collected every 2 min.

Assay [5] deals with Akt. Briefly: FOXO1-clover reporter live-cell imaging in C2 myoblasts. The following applies: different concentrations of R3-IGF-I, 60 min. It is filed as cell-based, mouse. On the procedure: C3H10T1/2 mouse embryonic fibroblasts (ATCC #CCL226) were incubated in DMEM supplemented with 10% FBS. Mouse C2 myoblasts (Yaffe and Saxel, 1977) were grown in DMEM supplemented with 10% FBS and 10% newborn calf serum. Cells were transduced at 50% of confluent density with concentrated virus in the presence of 6 μg/ml polybrene, as described (Mukherjee A et al, Mol Cell Biol 30, 1018-1027 (2010); incorporated by reference herein). Cells were then selected by incubation with puromycin (2 μg/ml) for one week. Surviving cells were sorted by fluorescence intensity using a Becton-Dickinson Influx cell sorter at the OHSU Flow Cytometry Core Facility. Reporter expression was stable for at least 10 passages in each sorted cell population.
10T1/2 cells and C2 myoblasts were incubated in serum-free medium for 90 min. R3-IGF-I was added in supplemented FluoroBrite [0 to 500 pM], and cells were imaged every 2-min for 60 min.

For the next assay, the target named is IGF-I receptor (Homo sapiens, UniProt P08069). The conditions noted are these: cited from earlier work.
IGF-I receptor, sequence (P08069 31-736 limits assumed, species assumed): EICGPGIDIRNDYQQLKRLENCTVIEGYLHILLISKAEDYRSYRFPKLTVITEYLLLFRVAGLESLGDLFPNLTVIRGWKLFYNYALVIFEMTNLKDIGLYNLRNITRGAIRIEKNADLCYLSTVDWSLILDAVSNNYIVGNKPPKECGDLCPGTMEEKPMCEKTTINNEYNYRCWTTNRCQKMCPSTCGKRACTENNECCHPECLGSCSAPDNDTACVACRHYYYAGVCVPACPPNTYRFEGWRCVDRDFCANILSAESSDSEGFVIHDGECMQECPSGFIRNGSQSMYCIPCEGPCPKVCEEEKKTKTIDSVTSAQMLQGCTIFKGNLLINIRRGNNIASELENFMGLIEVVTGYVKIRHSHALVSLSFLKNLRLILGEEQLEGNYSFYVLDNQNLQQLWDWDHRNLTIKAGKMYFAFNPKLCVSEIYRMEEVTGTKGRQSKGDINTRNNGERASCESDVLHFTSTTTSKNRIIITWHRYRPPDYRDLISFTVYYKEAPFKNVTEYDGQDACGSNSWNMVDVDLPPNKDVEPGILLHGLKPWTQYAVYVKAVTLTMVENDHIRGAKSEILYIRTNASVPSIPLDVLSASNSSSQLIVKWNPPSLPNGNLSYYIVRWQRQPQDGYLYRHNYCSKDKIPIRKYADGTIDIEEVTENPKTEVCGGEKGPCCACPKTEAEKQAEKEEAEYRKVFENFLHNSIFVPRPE
IGF-I receptor, sequence (P08069 741-1367 partner limits assumed, species assumed): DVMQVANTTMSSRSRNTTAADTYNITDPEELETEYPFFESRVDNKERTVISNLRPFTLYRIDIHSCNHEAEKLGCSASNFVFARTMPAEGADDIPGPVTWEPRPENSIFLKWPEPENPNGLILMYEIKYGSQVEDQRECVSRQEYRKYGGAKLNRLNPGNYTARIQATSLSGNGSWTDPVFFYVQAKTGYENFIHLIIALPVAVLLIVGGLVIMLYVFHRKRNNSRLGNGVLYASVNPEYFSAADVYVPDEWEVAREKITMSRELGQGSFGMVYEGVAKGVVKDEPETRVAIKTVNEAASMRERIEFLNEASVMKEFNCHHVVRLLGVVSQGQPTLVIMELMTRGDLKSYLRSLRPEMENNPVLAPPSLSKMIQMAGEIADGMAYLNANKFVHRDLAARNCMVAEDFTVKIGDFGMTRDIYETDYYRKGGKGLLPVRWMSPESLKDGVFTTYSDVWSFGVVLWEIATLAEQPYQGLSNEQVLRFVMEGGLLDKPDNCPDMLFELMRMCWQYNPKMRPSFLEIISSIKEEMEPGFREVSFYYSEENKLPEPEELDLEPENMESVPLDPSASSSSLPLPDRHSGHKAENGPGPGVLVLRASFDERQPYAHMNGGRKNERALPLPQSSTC

Take “R3-IGF-I: growth factor purchased from GroPep; binds minimally to IGF binding proteins; activates Akt”: in the assay with Akt phosphorylation [1], the “extent of Akt phosphorylation (immunoblot)” value is recorded as “dose-dependent increase in the extent of Akt phosphorylation”. In addition, the “Akt phosphorylation (pAkt T308 immunoblot)” value in the assay on Akt phosphorylation [2] (60 min, 10% FBS, PDGF-BB 206 pM, R3-IGF-I 1 nM, BMP-2 15 nM) is “stimulation of Akt phosphorylation”. The “extent of Akt phosphorylation (immunoblot)” value in the assay with Akt phosphorylation [2] (different concentrations of IGF-I, 10T1/2 cells) is on record as “dose-dependent increase in the extent of Akt phosphorylation”. Moreover, in the assay on Akt [3] (EGF 4.2 nM for 60 min, then IGF-I 500 pM), the “response to IGF-I after prior EGF” value was “rapid, extensive, and sustained signaling response”. In addition, in the assay with Akt [3], the “change of nuclear levels of the reporter on growth factor addition (result in words)” value is “rapid and dose-dependent reduction in nuclear levels of the reporter”; the “time to half-maximal translocation/accumulation of reporter in the cytoplasm after onset of incubation” value lay within 8 to 10 min; the “time to maximal translocation values” is 14 to 16 min. Also, in the assay with Akt [3] (sequential exposures, IGF-I 50 or 500 pM with 90-min washout, EGF 4.2 nM after 60 min EGF), the “response to a second treatment with the same growth factor” value is “qualitatively similar population responses to each dose”. The “subcellular localization of FOXO1-clover (result in words)” value in the assay on Akt [3] (serum-starved cells, 60 min, 10% FBS, PDGF-BB 206 pM, R3-IGF-I 1 nM, BMP-2 15 nM) was “rapid and sustained translocation of the reporter from the nucleus to the cytoplasm”. Besides, the “signaling response in HeLa FoxO1-clover cells (result in words)” value in the assay with Akt [4] was “sustained signaling effects”. The “reporter response in C2 myoblasts compared with 10T1/2 cells” value in the assay with Akt [5] is “marked increase in sensitivity to IGF-I”.

On to “insulin: recombinant human insulin (Tocris Bioscience)”, for which, in the assay with Akt phosphorylation [2] (insulin 1400 pM), the “time at which phosphorylation of Akt and PRAS40 was detected” value is at most 5 min. Also, in the assay on Akt phosphorylation [2] (insulin 1400 pM, EGF 4.2 nM, PDGF-AA 1400 pM, PDGF-BB 104 pM, up to 90 min), the “time course of Akt and PRAS40 phosphorylation (result in words)” value is “rapid and sustained”. In the assay on Akt [3], the “change of nuclear levels of the reporter on growth factor addition (result in words)” value is “rapid, dose-dependent, and sustained decrease in nuclear levels of FoxO1-clover”; the “time to half-maximal translocation/accumulation of reporter in the cytoplasm after onset of incubation” value lay within 8 to 15 min; the “time to maximal translocation values” is on record as about 20 min. The “affinity for IGF-I receptor relative to insulin receptor (fold less)” value in the assay with IGF-I receptor is recorded as about 1000 fold. For the same substance, the “signaling response in HeLa FoxO1-clover cells (result in words)” value in the assay with Akt [4] is “sustained signaling effects”.
